Reference: US11980609B2, “LPA receptor antagonists and uses thereof” (Gilead Sciences, Inc., priority 2021, dated 2024)

Target: T1, human LPAR1 (Homo sapiens, UniProt Q92633)
T1 construct: host or cells: CHO-K1
Test: LPAR1 intracellular calcium mobilization assay (antagonist mode)
Type: cell-based
Conditions: CHO-K1 EDG2 cells expressing human LPAR1; 60 min pre-incubation with compound (0.5 nM to 10 μM), then LPA 18:2 challenge; FLIPR Tetra calcium signal
Procedure: In vitro LPAR1 activity was measured in an intracellular calcium mobilization assay.
CHO-K1 EDG2 cells (DiscoverX cat #93-0644C2) expressing human LPAR1 (NM_001401.3) were seeded in a total volume of 25 μL of Dulbecco's Modification of Eagle's Medium (DMEM) with 10% Fetal Bovine Serum, 1× PenStrepGlutamine, 300 μg/ml Hygromycin, and 800 μg/ml G418 into 384-well tissue culture plate (Grenier #781091) at 15,000 cells/well and incubated at 37° C. overnight. Prior to testing, 25 μL Calcium Loading Dye Component A (FLIPR Calcium 6 Assay Kit Molecular Device #R8190) and 2.5 mM Probenecid (Invitrogen #P36400, prepared fresh) in Hank's Balanced Salt Solution (Corning #21-023-CV), 20 mM HEPES (Corning #25-060-CI), 0.1% Bovine Serum Albumin (Sigma-Aldrich #A7906-500G) was add to the cells for 60 minutes at 37° C.
Agonist dose curves of LPA 18:2 (Avanti Polar Lipids cat #857138, 0.5 nM to 10 μM) were recorded to determine the LPA 18:2 EC80 for subsequent antagonist assays. For agonist dose curves, cells were removed from the incubator 2 hours after dye loading and transferred to the FLIPR Tetra instrument (Molecular Devices, San Jose, CA). Calcium mobilization was monitored for 5 min and 10 μL 6×LPA in HBSS/20 mM Hepes/0.1% bovine serum albumin (BSA) was added to the cells 5 seconds into the assay.
To determine the LPAR1 antagonist activity of test compounds, cells were pre-incubated with test compound at a dose range of 0.5 nM to 10 μM, followed by LPA at […] concentration (100 nM). After dye loading, cells were removed from the incubator and 0.3 μL of 200× antagonist was added. Cells were incubated for 60 minutes at 37° C. Antagonist activity was measured on a FLIPR Tetra. Calcium mobilization was monitored for 3.5 minutes and 10 μL 6×EC80 LPA in HBSS, 20 mM HEPES, and 0.1% BSA was added to the cells 5 seconds into the assay. Signal amplitude (Maximum minus minimum) values were plotted against log10 of antagonist concentration using Dose Response Tool (Gilead Sciences Inc.) to determine EC50.
To assess the antagonistic potential of exemplified compounds EC50 values were determined for Compounds 1 to 55 in the LPAR1 calcium mobilization assay. The compound numbers correspond to the compound numbers in Examples 1 to 35. N/A=not available.

T1 sequence (Q92633 whole entry): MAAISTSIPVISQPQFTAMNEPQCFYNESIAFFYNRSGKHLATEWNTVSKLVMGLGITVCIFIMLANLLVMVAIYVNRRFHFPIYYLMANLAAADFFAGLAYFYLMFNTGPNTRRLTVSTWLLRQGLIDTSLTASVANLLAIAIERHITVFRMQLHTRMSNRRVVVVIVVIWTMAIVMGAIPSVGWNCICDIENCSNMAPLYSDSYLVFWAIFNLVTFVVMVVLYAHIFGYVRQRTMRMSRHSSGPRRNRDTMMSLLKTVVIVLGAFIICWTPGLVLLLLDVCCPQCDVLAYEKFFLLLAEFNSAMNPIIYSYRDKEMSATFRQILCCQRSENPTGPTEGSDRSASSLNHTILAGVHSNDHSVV

| Structure (SMILES) | EC50 [nM] |
| --- | --- |
| C[C@@H](OC(=O)Nc1c(-c2ncc(NC(=O)c3cnc(C(F)(F)F)nc3)cn2)cnn1C)c1cc(F)cnc1F [Compound 22, (R)-1-(2,5-difluoropyridin-3-yl)ethyl (1-methyl-4-(5-(2-(trifluoromethyl)pyrimidine-5-carboxamido)pyrimidin-2-yl)-1H-pyrazol-5-yl)carbamate] | 8.9 |
| C[C@@H](OC(=O)Nc1c(-c2ncc(C(=O)NC34CC(F)(C3)C4)cn2)cnn1C)c1cc(F)cnc1F [Compound 47, (R)-1-(2,5-difluoropyridin-3-yl)ethyl (4-(5-((3-fluorobicyclo[1.1.1]pentan-1-yl)carbamoyl)pyrimidin-2-yl)-1-methyl-1H-pyrazol-5-yl)carbamate] | 799 |
| C[C@@H](OC(=O)Nc1c(-c2ncc(NS(C)(=O)=O)cn2)cnn1C)c1ccccc1F [Compound 51, (R)-1-(2-fluorophenyl)ethyl (1-methyl-4-(5-(methylsulfonamido)pyrimidin-2-yl)-1H-pyrazol-5-yl)carbamate] | 36.4 |
| C[C@@H](OC(=O)Nc1c(-c2ccc3c(n2)OCC(=O)N3)cnn1C)c1cc(F)cnc1Cl [Compound 15, (R)-1-(2-chloro-5-fluoropyridin-3-yl)ethyl (1-methyl-4-(2-oxo-2,3-dihydro-1H-pyrido[2,3-b][1,4]oxazin-6-yl)-1H-pyrazol-5-yl)carbamate] | 25.7 |
| C[C@@H](OC(=O)Nc1c(-c2ncc(NC(=O)C34CC(C(F)F)(C3)C4)cn2)cnn1C)c1cc(F)cnc1F [Compound 31, (R)-1-(2,5-difluoropyridin-3-yl)ethyl (4-(5-(3-(difluoromethyl)bicyclo[1.1.1]pentane-1-carboxamido)pyrimidin-2-yl)-1-methyl-1H-pyrazol-5-yl)carbamate] | 23.7 |
| C[C@@H](OC(=O)Nc1c(-c2ncc(OS(C)(=O)=O)cn2)cnn1C)c1cccnc1F [Compound 8, (R)-2-(5-(((1-(2-fluoropyridin-3-yl)ethoxy)carbonyl)amino)-1-methyl-1H-pyrazol-4-yl)pyrimidin-5-yl methanesulfonate] | 523 |
| C[C@@H](OC(=O)Nc1c(-c2ncc(NC(=O)[C@@H]3C[C@H]3C(F)(F)F)cn2)cnn1C)c1cc(F)cnc1F [Compound 29, (R)-1-(2,5-difluoropyridin-3-yl)ethyl (1-methyl-4-(5-((1R,2R)-2-(trifluoromethyl)cyclopropane-1-carboxamido)pyrimidin-2-yl)-1H-pyrazol-5-yl)carbamate] | < 4.6 |
| C[C@@H](OC(=O)Nc1c(-c2ncc(NC(=O)c3ccc(Cl)nc3)cn2)cnn1C)c1cc(F)cnc1F [Compound 26, (R)-1-(2,5-difluoropyridin-3-yl)ethyl (4-(5-(6-chloronicotinamido)pyrimidin-2-yl)-1-methyl-1H-pyrazol-5-yl)carbamate] | 20.6 |
| C[C@@H](OC(=O)Nc1c(-c2ncc(OS(C)(=O)=O)cn2)cnn1C)c1cccnc1Cl [Compound 9, (R)-2-(5-(((1-(2-chloropyridin-3-yl)ethoxy)carbonyl)amino)-1-methyl-1H-pyrazol-4-yl)pyrimidin-5-yl methanesulfonate] | 42.9 |
| C[C@@H](OC(=O)Nc1c(-c2ncc(NC(=O)[C@@H]3C[C@H]3C(F)F)cn2)cnn1C)c1cc(F)cnc1F [Compound 34, (R)-1-(2,5-difluoropyridin-3-yl)ethyl (4-(5-((1R,2R)-2-(difluoromethyl)cyclopropane-1-carboxamido)pyrimidin-2-yl)-1-methyl-1H-pyrazol-5-yl)carbamate] | 11.6 |
| C[C@@H](OC(=O)Nc1c(-c2ncc(NC(=O)[C@@H]3C[C@H]3C(F)(F)F)cn2)cnn1C)c1cccnc1Cl [Compound 32, (R)-1-(2-chloropyridin-3-yl)ethyl (1-methyl-4-(5-((1R,2R)-2-(trifluoromethyl)cyclopropane-1-carboxamido)pyrimidin-2-yl)-1H-pyrazol-5-yl)carbamate] | < 4.6 |
| C[C@@H](OC(=O)Nc1c(-c2ncc(NC(=O)C3(C(F)F)CC(F)(F)C3)cn2)cnn1C)c1cc(F)cnc1F [Compound 37, (R)-1-(2,5-difluoropyridin-3-yl)ethyl (4-(5-(1-(difluoromethyl)-3,3-difluorocyclobutane-1-carboxamido)pyrimidin-2-yl)-1-methyl-1H-pyrazol-5-yl)carbamate] | 7.9 |
| C[C@@H](OC(=O)Nc1c(-c2ncc(NC(=O)C3CC(F)(F)C3)cn2)cnn1C)c1cc(F)cnc1F [Compound 36, (R)-1-(2,5-difluoropyridin-3-yl)ethyl (4-(5-(3,3-difluorocyclobutane-1-carboxamido)pyrimidin-2-yl)-1-methyl-1H-pyrazol-5-yl)carbamate] | 18.6 |
| C[C@@H](OC(=O)Nc1c(-c2ncc(NC(=O)C34CC(F)(C3)C4)cc2F)cnn1C)c1cc(F)cnc1F [Compound 16, (R)-1-(2,5-difluoropyridin-3-yl)ethyl (4-(3-fluoro-5-(3-fluorobicyclo[1.1.1]pentane-1-carboxamido)pyridin-2-yl)-1-methyl-1H-pyrazol-5-yl)carbamate] | 15.8 |
| C[C@@H](OC(=O)Nc1c(-c2ncc(OS(C)(=O)=O)cc2F)cnn1C)c1cccnc1Cl [Compound 12, (R)-6-(5-(((1-(2-chloropyridin-3-yl)ethoxy)carbonyl)amino)-1-methyl-1H-pyrazol-4-yl)-5-fluoropyridin-3-yl methanesulfonate] | 31.1 |

More lines, in order of falling EC50, values ahead:

| EC50 [nM] | Structure (SMILES) |
| --- | --- |
| 4180 | COC(=O)Nc1ccc(-c2cnn(C)c2NC(=O)O[C@H](C)c2cccc(F)c2)nc1C [Compound 14, (R)-1-(3-fluorophenyl)ethyl (4-(5-((methoxycarbonyl)amino)-6-methylpyridin-2-yl)-1-methyl-1H-pyrazol-5-yl)carbamate] |
| 1860 | C[C@@H](OC(=O)Nc1c(-c2ccc(C(=O)NC34CC(C#N)(C3)C4)cn2)cnn1C)c1cccc(F)c1 [Compound 49] |
| 745 | C[C@@H](OC(=O)Nc1c(-c2ncc(C(O)C(F)(F)F)cn2)cnn1C)c1cc(F)cnc1F (stereo partly drawn) [Compound 53, (R)-1-(2,5-difluoropyridin-3-yl)ethyl (1-methyl-4-(5-(2,2,2-trifluoro-1-hydroxyethyl)pyrimidin-2-yl)-1H-pyrazol-5-yl)carbamate] |
| 301 | C[C@@H](OC(=O)Nc1c(-c2ncc(O)cn2)cnn1C)c1cc(F)cnc1F [Compound 45, (R)-1-(2,5-difluoropyridin-3-yl)ethyl (4-(5-hydroxypyrimidin-2-yl)-1-methyl-1H-pyrazol-5-yl)carbamate] |
| 216 | C[C@@H](OC(=O)Nc1c(-c2ncc(NC(=O)C3(C(F)F)CC3)cn2)cnn1C)c1cc(F)cnc1F [Compound 28, (R)-1-(2,5-difluoropyridin-3-yl)ethyl (4-(5-(1-(difluoromethyl)cyclopropane-1-carboxamido)pyrimidin-2-yl)-1-methyl-1H-pyrazol-5-yl)carbamate] |
| 216 | C[C@@H](OC(=O)Nc1c(-c2ccc(NS(C)(=O)=O)cn2)cnn1C)c1cccnc1Cl [Compound 20, (R)-1-(2-chloropyridin-3-yl)ethyl (1-methyl-4-(5-(methylsulfonamido)pyridin-2-yl)-1H-pyrazol-5-yl)carbamate] |
| 120 | C[C@@H](OC(=O)Nc1c(-c2ncc(O)cn2)cnn1C)c1cccnc1Cl [Compound 44, (R)-1-(2-chloropyridin-3-yl)ethyl (4-(5-hydroxypyrimidin-2-yl)-1-methyl-1H-pyrazol-5-yl)carbamate] |
| 52.7 | C[C@@H](OC(=O)Nc1c(-c2ncc(NC(=O)[C@]3(C)C[C@@H](C#N)C3)cn2)cnn1C)c1cc(F)cnc1F [Compound 38, (R)-1-(2,5-difluoropyridin-3-yl)ethyl (4-(5-((1r,3R)-3-cyano-1-methylcyclobutane-1-carboxamido)pyrimidin-2-yl)-1-methyl-1H-pyrazol-5-yl)carbamate] |
| 20.7 | C[C@@H](OC(=O)Nc1c(-c2ncc(NC(=O)C3(C)CC(F)(F)C3)cn2)cnn1C)c1cccnc1F [Compound 41, (R)-1-(2-fluoropyridin-3-yl)ethyl (4-(5-(3,3-difluoro-1-methylcyclobutane-1-carboxamido)pyrimidin-2-yl)-1-methyl-1H-pyrazol-5-yl)carbamate] |
| 20.3 | C[C@@H](OC(=O)Nc1c(-c2ncc(NC(=O)[C@@H]3C[C@H]3c3cccnc3)cn2)cnn1C)c1cc(F)cnc1F [Compound 33, (R)-1-(2,5-difluoropyridin-3-yl)ethyl (1-methyl-4-(5-((1R,2R)-2-(pyridin-3-yl)cyclopropane-1-carboxamido)pyrimidin-2-yl)-1H-pyrazol-5-yl)carbamate] |
